In ChEMBL document CHEMBL1201862, “PubChem BioAssay data set” (2004):
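Compound exposure: 48 hours, 5 concentrations, 96-well plates. GI50: concentration for 50% inhibition of growth.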 The source made the active and inactive calls. Cut-off read from the data, not from the text of the source: active = GI50 up to about 1.1 µM and inactive = higher.

Key:
Assay in all cases: growth of human tumour cells (NCI), 48 h
[1] = test system: K562
[2] = test system: RXF 393
[3] = test system: IGROV-1
[4] = test system: NCI-H23
[5] = test system: SF-268
[6] = test system: NCI-H522
[7] = test system: SF-539
[8] = test system: CAKI-1
[9] = test system: KM12
[10] = test system: OVCAR-4
[11] = test system: TK-10
[12] = test system: LXFL 529
[13] = test system: Hs-578T
[14] = test system: NCI/ADR-RES
[15] = test system: MDA-MB-231
[16] = test system: T47D
[17] = test system: MDA-MB-435
[18] = test system: DU-145
[19] = test system: BT-549
[20] = test system: PC-3

Row | Structure (SMILES) | GI50 [1] | GI50 [2] | GI50 [3] | GI50 [4] | GI50 [5] | GI50 [6] | GI50 [7] | GI50 [8] | GI50 [9] | GI50 [10] | GI50 [11] | GI50 [12] | GI50 [13] | GI50 [14] | GI50 [15] | GI50 [16] | GI50 [17] | GI50 [18] | GI50 [19] | GI50 [20]
1 | O=C(O)CCc1cccc2c1oc1c(CCC(=O)O)cccc12 | > 100 µM (inactive) | > 100 µM (inactive) | > 100 µM (inactive) | > 100 µM (inactive) | > 100 µM (inactive) | > 100 µM (inactive) | > 100 µM (inactive) | > 100 µM (inactive) | > 100 µM (inactive) | > 100 µM (inactive) | > 100 µM (inactive) | > 100 µM (inactive) |  |  |  |  |  |  |  | 
2 | O=C1c2ccccc2CC1C1(O)C(=O)Nc2c(Cl)cc(Cl)cc21 (stereo not drawn) | 30.8 µM (inactive) | 23.6 µM (inactive) |  | 24.9 µM (inactive) | 61 µM (inactive) | 17.9 µM (inactive) |  | > 100 µM (inactive) | 47.2 µM (inactive) | 92.5 µM (inactive) | > 100 µM (inactive) | 18.8 µM (inactive) |  |  |  |  |  |  |  | 
3 | CC(=O)c1ccc(NC(=O)C(=O)C(C#N)CC(C)(C)C=O)cc1 (stereo not drawn) | > 100 µM (inactive) |  | > 100 µM (inactive) | > 100 µM (inactive) | > 100 µM (inactive) | > 100 µM (inactive) | > 100 µM (inactive) | > 100 µM (inactive) | > 100 µM (inactive) | > 100 µM (inactive) | > 100 µM (inactive) | > 100 µM (inactive) |  |  |  |  |  |  |  | 
4 | O=C(CCc1nnc(S)[nH]1)Nc1cccc(C(F)(F)F)c1 | > 100 µM (inactive) | > 100 µM (inactive) | > 100 µM (inactive) | > 100 µM (inactive) | > 100 µM (inactive) | 35.2 µM (inactive) | > 100 µM (inactive) | > 100 µM (inactive) | > 100 µM (inactive) | > 100 µM (inactive) | > 100 µM (inactive) | > 100 µM (inactive) |  |  |  |  |  |  |  | 
5 | CCOC(=O)C(N=C(c1ccccc1)c1ccccc1)N(C(=O)OC(C)(C)C)C(=O)OC(C)(C)C (stereo not drawn) | > 100 µM (inactive) | 19.8 µM (inactive) | > 100 µM (inactive) | > 100 µM (inactive) | > 100 µM (inactive) | > 100 µM (inactive) | > 100 µM (inactive) | > 100 µM (inactive) | > 100 µM (inactive) | > 100 µM (inactive) | > 100 µM (inactive) | 75.2 µM (inactive) |  |  |  |  |  |  |  | 
6 | Cc1cc(C)n(CCNCCn2nc(C)cc2C)n1 | > 100 µM (inactive) | > 100 µM (inactive) |  | > 100 µM (inactive) | > 100 µM (inactive) | > 100 µM (inactive) | > 100 µM (inactive) | > 100 µM (inactive) | > 100 µM (inactive) | > 100 µM (inactive) | > 100 µM (inactive) | > 100 µM (inactive) |  |  |  |  |  |  |  | 
7 | Cc1nc(Nc2ccccc2)sc1C(=O)NNC(N)=O | > 100 µM (inactive) | 29.2 µM (inactive) | > 100 µM (inactive) | > 100 µM (inactive) | > 100 µM (inactive) | > 100 µM (inactive) | > 100 µM (inactive) | > 100 µM (inactive) | > 100 µM (inactive) | > 100 µM (inactive) | > 100 µM (inactive) | > 100 µM (inactive) |  |  |  |  |  |  |  | 
8 | Cc1nc(=O)n2c(c1C(=O)Nc1ccc(Cl)cc1)NCCC2 | > 100 µM (inactive) | > 100 µM (inactive) | > 100 µM (inactive) | > 100 µM (inactive) | > 100 µM (inactive) | 2.97 µM (inactive) | > 100 µM (inactive) | > 100 µM (inactive) | > 100 µM (inactive) | > 100 µM (inactive) | > 100 µM (inactive) | > 100 µM (inactive) |  |  |  |  |  |  |  | 
9 | Cc1cc(NS(=O)(=O)c2ccc(NC(=O)c3cccc4cc5ccccc5nc34)cc2)no1 | 18.1 µM (inactive) | 14.8 µM (inactive) | 15.8 µM (inactive) | 17.2 µM (inactive) | 12.9 µM (inactive) | 15.5 µM (inactive) | 11.6 µM (inactive) | 21.9 µM (inactive) | 16.4 µM (inactive) | 18.3 µM (inactive) | 35.9 µM (inactive) | 15.8 µM (inactive) |  |  |  |  |  |  |  | 
10 | O=C(CSSCC(=O)Nc1ccc(Br)cc1)Nc1ccc(Br)cc1 | 21.2 µM (inactive) | 18.7 µM (inactive) | 18.2 µM (inactive) | 19.3 µM (inactive) | 13.7 µM (inactive) | 12.2 µM (inactive) | 17.6 µM (inactive) | 24.2 µM (inactive) | 19.1 µM (inactive) | 20 µM (inactive) | 16.7 µM (inactive) | 16 µM (inactive) |  |  |  |  |  |  |  | 
11 | O=C1CSC(Cc2nc3ccccc3[nH]2)=N1 | 15 µM (inactive) | 18.7 µM (inactive) | 26.6 µM (inactive) | 18.6 µM (inactive) | 16.7 µM (inactive) | 17.7 µM (inactive) | 20.7 µM (inactive) | 15.8 µM (inactive) | 17.6 µM (inactive) | 18.5 µM (inactive) | 28.2 µM (inactive) | 16.3 µM (inactive) |  |  |  |  |  |  |  | 
12 | C=C(C(=C)P(=S)(c1ccccc1)c1ccccc1)P(=S)(c1ccccc1)c1ccccc1 | > 100 µM (inactive) | > 100 µM (inactive) | > 100 µM (inactive) | > 100 µM (inactive) | > 100 µM (inactive) | > 100 µM (inactive) | > 100 µM (inactive) | > 100 µM (inactive) | > 100 µM (inactive) | 34.8 µM (inactive) | > 100 µM (inactive) | > 100 µM (inactive) |  |  |  |  |  |  |  | 
13 | CCCCC#C[I+]c1ccccc1 | 15.2 µM (inactive) | 20.1 µM (inactive) | 19.9 µM (inactive) | 13.6 µM (inactive) | 19.9 µM (inactive) | 3.53 µM (inactive) | 22.4 µM (inactive) | 14 µM (inactive) | 14.2 µM (inactive) | 14.9 µM (inactive) | 15.1 µM (inactive) | 12.2 µM (inactive) |  |  |  |  |  |  |  | 
14 | O=c1[nH]cc(COCC(F)(F)C(F)(F)C(F)(F)C(F)F)c(=O)[nH]1 | > 100 µM (inactive) | > 100 µM (inactive) | > 100 µM (inactive) | > 100 µM (inactive) | > 100 µM (inactive) | > 100 µM (inactive) |  | > 100 µM (inactive) | > 100 µM (inactive) |  | > 100 µM (inactive) | > 100 µM (inactive) |  |  |  |  |  |  |  | 
15 | c1ccc2c(c1)N=C(c1ccc3ccccc3c1)CC(c1cccc3ccccc13)S2 (stereo not drawn) | 17.2 µM (inactive) | 40.4 µM (inactive) | 14 µM (inactive) | 25.7 µM (inactive) | 48.3 µM (inactive) | 24.3 µM (inactive) | 51.6 µM (inactive) | 55.8 µM (inactive) | 18.9 µM (inactive) | 33.6 µM (inactive) | 75.7 µM (inactive) | 24.2 µM (inactive) |  |  |  |  |  |  |  | 
16 | Cn1c(=O)nc2n(-c3ccc(Br)cc3)c3ccccc3nc-2c1=O | 5.43 µM (inactive) | 12.3 µM (inactive) | 11.7 µM (inactive) | 0.783 µM (active) | 11.3 µM (inactive) | 4.39 µM (inactive) | 5.85 µM (inactive) | 4.86 µM (inactive) | 8.83 µM (inactive) | 3.51 µM (inactive) | 8.93 µM (inactive) | 12.2 µM (inactive) |  |  |  |  |  |  |  | 
17 | CCC(COC(=O)CC[C@@H](NC(=O)C(C)NC(=O)C(C)OC1C(O)C(CO)OC(OCc2ccccc2)C1NC(C)=O)C(N)=O)NC1c2ccccc2Nc2cccc([N+](=O)[O-])c21 (stereo partly drawn) | > 100 µM (inactive) | 37.4 µM (inactive) | > 100 µM (inactive) | > 100 µM (inactive) | > 100 µM (inactive) | > 100 µM (inactive) | > 100 µM (inactive) | > 100 µM (inactive) | > 100 µM (inactive) | > 100 µM (inactive) | > 100 µM (inactive) | 41.8 µM (inactive) |  |  |  |  |  |  |  | 
18 | C[n+]1ccn2c3nc4ccccc4nc3c([O-])c(C#N)c21 | > 100 µM (inactive) | > 65.9 µM (inactive) | > 31.4 µM (inactive) | > 100 µM (inactive) | > 100 µM (inactive) | > 10 µM (inactive) | > 100 µM (inactive) | > 100 µM (inactive) | > 10 µM (inactive) | > 100 µM (inactive) | > 10 µM (inactive) | > 100 µM (inactive) | > 100 µM (inactive) | > 34.2 µM (inactive) | > 100 µM (inactive) | > 100 µM (inactive) | > 100 µM (inactive) | > 100 µM (inactive) | > 100 µM (inactive) | > 100 µM (inactive)
